According to US20200338158A1, “Therapeutic Drug for Non-Alcoholic Fatty Liver Disease” (Shanghai Hep Pharmaceutical Co., Ltd., priority 2017, published 2020):
“Also recorded” adds a separate entry of the source.

Columns and labels:
Type in all cases: in vivo
C57BL6 mice [1] = assay: Quantitative CT of body fat deposition, mouse NASH model; settings: week 16; for subcutaneous fat (CT): vs model group
Excerpt: (§1) In this example, a mouse nonalcoholic steatohepatitis (NASH) model was used to evaluate the effect of hepalatide (L47) on pathological changes and metabolism level of NASH, and to determine whether L47 can improve the pathological changes of NASH, so as to provide reference for pharmacodynamic evaluation of L47 before clinical treatment.
Quantitative CT was used to locate and quantify subcutaneous, visceral and brown fat in mice at week 16.

C57BL6 mice [2] = assay: Liver histology (HE, Oil Red O, Masson, TUNEL staining), mouse NASH model; settings: for liver Masson staining (fibrous cords) / liver Oil Red O staining (fat accumulation) / liver Masson staining (fibrous depositions): vs model group
Experimental: as §1
At week 8 and week 16, hematoxylin eosin (HE) staining, trichrome staining (Masson staining), Oil Red 0 staining and apoptosis (TUNEL) staining were performed on the liver tissue sections of mice.

C57BL6 mice [3] = assay: Blood (serum) biochemistry test, mouse NASH model
Excerpt: as §1
Total cholesterol (TC), triglyceride (TG), total bilirubin (TBIL), high-density lipoprotein cholesterol (HDL-C), low-density lipoprotein cholesterol (LDL-C), alkaline phosphatase (ALP), albumin (ALB), aspartate aminotransferase (AST) and alanine aminotransferase (ALT) were provided by Shanghai Adicon Company and tested by automatic biochemical analyzer.
Total bile acid (TBA), very low density lipoprotein (VLDL): provided by Nanjing Jiancheng Bioengineering Institute.
At week 8 and week 16, blood was taken from fasted mice (fasted for 12 hours) after anesthesia, and levels of serum TG, TC, ALB, ALP, ALT, AST, HDL-C, LDL-C, VLDL, TBIL, TBA, insulin (Ins) were measured.

C57BL6 mice [4] = assay: Body weight and general observation of abdominal fat, mouse NASH model
Excerpt: as §1
Each experimental group was provided with sufficient feed and water daily with free diet, and water was changed twice a week for sugar water-added group, and the remaining amount of feed was weighed and added to 150 g each week for each group in addition to the normal control group, and body weight of mice was weighed each week for each group.
At week 8 and week 16, liver was separated by dissection after anesthesia and blood collection, and pathological changes of liver tissues and accumulation of abdominal fat were grossly observed by the naked eye.

C57BL6 mice [5] = assay: Mouse NASH model, overall conclusions at week 8 and week 16
Excerpt: as §1
4.1.1 Normal control group (Control): common block feed+common water, 14 mice in total, wherein 6 mice were sacrificed at week 8, and 8 mice were sacrificed at week 16.
4.1.2 Model group (HFC-F/G): high fat feed+high sugar water, 9 mice in total, wherein 3 mice were sacrificed at week 8, and 6 mice were sacrificed at week 16.
4.1.3 Low dose group 1 (HFC-F/G+HL1): high fat feed+high sugar water+L47 20 mg/kg (10 mg/kg*2/d, i.e. once in the morning and once in the afternoon), 10 mice in total, wherein 3 mice were sacrificed at week 8, and 7 mice were sacrificed at week 16.
4.1.4 High dose group 1 (HFC-F/G+HH1): high fat feed+high sugar water+L47 60 mg/kg (30 mg/kg*2/d, i.e. once in the morning and once in the afternoon), 10 mice in total, wherein 3 mice were sacrificed at week 8, and 7 mice were sacrificed at week 16.
4.1.5 Low dose group 2 (HFC-F/G+HL2): high fat feed+high sugar water+L47 20 mg/kg (10 mg/kg*2/d, i.e. once in the morning and once in the afternoon, with pharmacologic intervention started 8 weeks after initiation of the experiment), 5 mice in total, which are sacrificed after 16 weeks.
4.1.6 High dose group 2 (HFC-F/G+HH2): high fat feed+high sugar water+L47 60 mg/kg (30 mg/kg*2/d, i.e. once in the morning and once in the afternoon, with pharmacologic intervention started 8 weeks after initiation of the experiment), 5 mice in total, which are sacrificed after 16 weeks.
The concentration of L47 in low dose group was 5 mg/ml; the concentration of L47 in high dose group was 10 mg/ml.
Route of administration: subcutaneous injection.

[6] = treatment groups vs model group
[7] = week 8, treatment groups (HL1, HH1)
[8] = week 16, HH1 (L47 30 mg/kg*2/d s.c. from start)
[9] = week 16, HH2 (L47 30 mg/kg*2/d s.c., started after 8 weeks)
[10] = week 16, HL1 (L47 10 mg/kg*2/d s.c. from start)
[11] = week 16, HL2 (L47 10 mg/kg*2/d s.c., started after 8 weeks)
[12] = week 8, treatment groups (HL1, HH1) vs model group
[13] = week 8, treatment groups vs model group
[14] = week 8, vs model group, HL1 (L47 10 mg/kg*2/d s.c. from start)
[15] = week 16, treatment groups vs model group (conclusions)
[16] = week 16, vs model group, HH2 (L47 30 mg/kg*2/d s.c., started after 8 weeks), 30 mg/kg
[17] = week 16, vs model group, HL1 (L47 10 mg/kg*2/d s.c. from start)
[18] = week 16, vs model group, HL2 (L47 10 mg/kg*2/d s.c., started after 8 weeks), p<0.05
[19] = week 16, vs model group, high dose group 1 (L47 30 mg/kg*2/d s.c. from start), 30 mg/kg
[20] = overall conclusion, week 8 and week 16
[21] = overall conclusion, effect better as dose and administration duration increased
[22] = overall conclusion, in a short period of time, dose-dependent

hepalatide [L47]
subcutaneous fat (quantitative body fat on CT scan) (C57BL6 mice [1]; L47 treatment groups vs model group (conclusions)): decreased significantly | brown fat (CT) (C57BL6 mice [1]; [6]): no significant difference | visceral fat (CT) (C57BL6 mice [1]; [6]): no significant difference; also recorded: no significant effect | subcutaneous fat (CT) (C57BL6 mice [1]; HH1 (L47 30 mg/kg*2/d s.c. from start)): decreased | subcutaneous fat (CT) (C57BL6 mice [1]; HH2 (L47 30 mg/kg*2/d s.c., started after 8 weeks)): decreased | subcutaneous fat (CT) (C57BL6 mice [1]; HL2 (L47 10 mg/kg*2/d s.c., started after 8 weeks)): decreased | liver HE staining (fat vacuoles, inflammatory cells) (C57BL6 mice [2]; week 8, low and high dose groups (HL1, HH1)): only less and smaller fat vacuoles were formed, with less inflammatory cells | liver Oil Red O staining (fat droplet vacuoles) (C57BL6 mice [2]; [7]): only smaller and less vacuoles | liver TUNEL staining (apoptosis) (C57BL6 mice [2]; [7]): effectively improved | TUNEL semi-quantitative counting (number of apoptotic bodies) (C57BL6 mice [2]; week 8, treatment groups (HL1, HH1) vs model group, p<0.001, p<0.001): significantly decreased | liver HE staining (steatosis, inflammatory cell infiltration) (C57BL6 mice [2]; [8]): severe steatosis | liver TUNEL staining (apoptosis) (C57BL6 mice [2]; [8]): no improvement | liver TUNEL staining (apoptosis) (C57BL6 mice [2]; [9]): effectively improved | TUNEL semi-quantitative counting (number of apoptotic bodies) (C57BL6 mice [2]; week 16, HH2 (L47 30 mg/kg*2/d s.c., started after 8 weeks), p<0.01): significantly decreased | liver TUNEL staining (apoptosis) (C57BL6 mice [2]; [10]): no improvement | liver TUNEL staining (apoptosis) (C57BL6 mice [2]; [11]): effectively improved | TUNEL semi-quantitative counting (number of apoptotic bodies) (C57BL6 mice [2]; week 16, HL2 (L47 10 mg/kg*2/d s.c., started after 8 weeks), p<0.01): significantly decreased | liver HE staining (steatosis, inflammatory response) (C57BL6 mice [2]; week 16, other groups (HL1, HL2, HH2)): slight steatosis and inflammatory response | liver Masson staining (fibrous cords) (C57BL6 mice [2]; [8]): no significant difference | liver Oil Red O staining (fat accumulation) (C57BL6 mice [2]; [8]): only slightly reduced | liver Masson staining (fibrous depositions) (C57BL6 mice [2]; [9]): decreased | liver Oil Red O staining (fat accumulation) (C57BL6 mice [2]; [9]): significantly reduced | liver Masson staining (fibrous cords) (C57BL6 mice [2]; [10]): no significant difference | liver Oil Red O staining (fat accumulation) (C57BL6 mice [2]; [10]): only slightly reduced | liver Masson staining (fibrous depositions) (C57BL6 mice [2]; [11]): decreased | liver Oil Red O staining (fat accumulation) (C57BL6 mice [2]; [11]): significantly reduced | serum LDL-C level (C57BL6 mice [3]; at week 20 (so in the source), HH1 (L47 30 mg/kg*2/d s.c. from start), p<0.01): decreased | serum LDL-C level (C57BL6 mice [3]; at week 20 (so in the source), HL1 (L47 10 mg/kg*2/d s.c. from start), p≤0.001): decreased | serum HDL-C level (C57BL6 mice [3]; at week 20 (so in the source), treatment groups except HH2, vs model group, p<0.01): decreased | serum LDL-C level (C57BL6 mice [3]; week 8, HH1 (L47 30 mg/kg*2/d s.c. from start)): decreased | serum TC level (C57BL6 mice [3]; week 8, HL1 (L47 10 mg/kg*2/d s.c. from start), p<0.05): decreased significantly | serum AST level (C57BL6 mice [3]; [12]): decreasing trend; also recorded: decreased | serum TC level (C57BL6 mice [3]; [12]): significantly decreased | serum TG level (C57BL6 mice [3]; [12]): significantly decreased | serum ALT level (C57BL6 mice [3]; week 8, treatment groups (HL1, HH1) vs model group, p≤0.001): significantly decreased | serum ALB level (C57BL6 mice [3]; [13]): decreased | serum ALP level (C57BL6 mice [3]; [13]): no significant difference | serum HDL level (C57BL6 mice [3]; [13]): no significant difference | serum LDL level (C57BL6 mice [3]; [13]): decreased | serum VLDL level (C57BL6 mice [3]; [13]): no significant difference | serum HDL-C level (C57BL6 mice [3]; [14]): decreased | serum LDL-C level (C57BL6 mice [3]; [14]): decreased | serum ALB level (C57BL6 mice [3]; week 16, HH2 (L47 30 mg/kg*2/d s.c., started after 8 weeks), p<0.001): slightly decreased | serum ALB level (C57BL6 mice [3]; week 16, HL2 (L47 10 mg/kg*2/d s.c., started after 8 weeks), p<0.001): slightly decreased | serum ALP level (C57BL6 mice [3]; week 16, among the groups): no significant difference | serum ALB level (C57BL6 mice [3]; week 16, other groups (HL1, HH1)): no difference | serum VLDL level (C57BL6 mice [3]; week 16, other groups except HL2 (HL1, HH1, HH2) vs model group): increased | serum TC level (C57BL6 mice [3]; week 16, treatment groups (HL1, HH1, HL2, HH2) vs model group, p<0.001, p<0.001, p≤0.001, p<0.05): significantly decreased | serum TG level (C57BL6 mice [3]; week 16, treatment groups vs model group): did not decrease; also recorded: no significant difference | serum HDL level (C57BL6 mice [3]; [15]): decreased | serum LDL level (C57BL6 mice [3]; [15]): decreased | serum VLDL level (C57BL6 mice [3]; [15]): no significant difference | serum ALT level (C57BL6 mice [3]; [16]): decreasing trends; also recorded: decreased significantly | serum AST level (C57BL6 mice [3]; [16]): decreasing trends; also recorded: decreased significantly | serum ALT level (C57BL6 mice [3]; [17]): did not decrease | serum AST level (C57BL6 mice [3]; [17]): did not decrease | serum ALT level (C57BL6 mice [3]; [18]): significantly decreased | serum AST level (C57BL6 mice [3]; [18]): significantly decreased | serum ALT level (C57BL6 mice [3]; [19]): did not decrease; also recorded: increasing trends | serum AST level (C57BL6 mice [3]; [19]): did not decrease; also recorded: increasing trends | body weight (C57BL6 mice [4]; week 8, L47 treatment groups vs model group): significantly decreased | abdominal fat deposition (general observation) (C57BL6 mice [4]; week 8, treatment groups): significant effect | abdominal fat deposition (general observation) (C57BL6 mice [4]; week 16, among each group): no significant difference | body weight (C57BL6 mice [4]; week 16, low dose group 2): decrease | body weight (C57BL6 mice [4]; week 16, treatment groups except low dose group 2, vs model group): no significant difference | levels of ALB, HDL and LDL (C57BL6 mice [5]; [20]): reduce | levels of VLDL and ALP (C57BL6 mice [5]; [20]): no effect | blood glucose and insulin level (C57BL6 mice [5]; [21]): effectively reduce | insulin resistance (C57BL6 mice [5]; [21]): improve | apoptosis (liver) (C57BL6 mice [5]; [22]): improve | fibrosis degree of liver (C57BL6 mice [5]; [22]): effectively reduce | levels of ALT and AST (C57BL6 mice [5]; [22]): effectively reduce | subcutaneous fat, liver fat and serum fat deposition (C57BL6 mice [5]; overall conclusion, in a short period of time, dose-dependent, improvement reduced as treatment duration extended): effectively reduce | liver fat accumulation, liver cell damage, insulin resistance and liver fibrosis (C57BL6 mice [5]; short-term (8 weeks) co-administration or delayed administration, to various degrees): improve
